Assay results reported in PubChem BioAssay (NCI).
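Five concentrations, 48 hours, 96-well plates. Definition used: TGI = concentration required for complete inhibition of growth.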

Columns and labels:
Assay in all cases: DTP human tumour cell line panel, 48 h
NCI-H522 lung = system: NCI-H522 lung
MDA-N = system: MDA-N
OVCAR-4 ovarian = system: OVCAR-4 ovarian
NCI-H23 lung = system: NCI-H23 lung
PC-3 prostate = system: PC-3 prostate
CCRF-CEM leukemia = system: CCRF-CEM leukemia
ACHN renal = system: ACHN renal
KM12 colon = system: KM12 colon
K-562 leukemia = system: K-562 leukemia
MDA-MB-435 = system: MDA-MB-435
BT-549 breast = system: BT-549 breast
NCI-H460 lung = system: NCI-H460 lung
HCT-15 colon = system: HCT-15 colon
OVCAR-8 ovarian = system: OVCAR-8 ovarian
SNB-19 CNS = system: SNB-19 CNS
UACC-257 melanoma = system: UACC-257 melanoma
EKVX NSCLC = system: EKVX NSCLC
UO-31 renal = system: UO-31 renal
HCC-2998 colon = system: HCC-2998 colon
SNB-75 CNS = system: SNB-75 CNS

## CCN(CC)CCSc1n[nH]c(-c2c[nH]c3nc(C)ccc3c2=O)n1
NCI-H522 lung
  TGI: > 100 µM
MDA-N
  TGI: > 100 µM
OVCAR-4 ovarian
  TGI: > 100 µM
NCI-H23 lung
  TGI: > 100 µM
PC-3 prostate
  TGI: > 100 µM
CCRF-CEM leukemia
  TGI: > 100 µM
ACHN renal
  TGI: > 100 µM
KM12 colon
  TGI: > 100 µM
K-562 leukemia
  TGI: > 100 µM
MDA-MB-435
  TGI: > 100 µM
BT-549 breast
  TGI: > 100 µM
NCI-H460 lung
  TGI: > 100 µM
HCT-15 colon
  TGI: > 100 µM
OVCAR-8 ovarian
  TGI: > 100 µM
SNB-19 CNS
  TGI: > 100 µM
UACC-257 melanoma
  TGI: > 100 µM
EKVX NSCLC
  TGI: > 100 µM
UO-31 renal
  TGI: > 100 µM

## OC1CSCCCSCCSCCCSC1
NCI-H522 lung
  TGI: > 100 µM
HCC-2998 colon
  TGI: > 100 µM
MDA-N
  TGI: > 100 µM
OVCAR-4 ovarian
  TGI: > 100 µM
NCI-H23 lung
  TGI: > 100 µM
PC-3 prostate
  TGI: > 100 µM
ACHN renal
  TGI: > 100 µM
K-562 leukemia
  TGI: > 100 µM
MDA-MB-435
  TGI: > 100 µM
BT-549 breast
  TGI: > 100 µM
NCI-H460 lung
  TGI: > 100 µM
HCT-15 colon
  TGI: > 100 µM
OVCAR-8 ovarian
  TGI: > 100 µM
SNB-19 CNS
  TGI: > 100 µM
UACC-257 melanoma
  TGI: > 100 µM
EKVX NSCLC
  TGI: > 100 µM
UO-31 renal
  TGI: > 100 µM
SNB-75 CNS
  TGI: > 100 µM

## CN(C)/N=C1\C=C2CC[C@H](O[Si](C)(C)C(C)(C)C)[C@@]2(C)CC1
NCI-H522 lung
  TGI: 26.3 µM
HCC-2998 colon
  TGI: 30.6 µM
MDA-N
  TGI: 41.4 µM
OVCAR-4 ovarian
  TGI: 28.6 µM
NCI-H23 lung
  TGI: 52.4 µM
PC-3 prostate
  TGI: 28.1 µM
CCRF-CEM leukemia
  TGI: 44 µM
ACHN renal
  TGI: 30.1 µM
KM12 colon
  TGI: 30.9 µM
K-562 leukemia
  TGI: 35.9 µM
MDA-MB-435
  TGI: 32 µM
NCI-H460 lung
  TGI: 31.9 µM
HCT-15 colon
  TGI: 33 µM
OVCAR-8 ovarian
  TGI: 33.3 µM
SNB-19 CNS
  TGI: 31.9 µM
UACC-257 melanoma
  TGI: 30.6 µM
EKVX NSCLC
  TGI: 38.6 µM
UO-31 renal
  TGI: 29.8 µM
SNB-75 CNS
  TGI: 30.9 µM

## CCOc1ncn(-c2ccc(NC(=S)Nc3cnccn3)cc2)n1
NCI-H522 lung
  TGI: > 10 µM
MDA-N
  TGI: > 10 µM
OVCAR-4 ovarian
  TGI: > 10 µM
NCI-H23 lung
  TGI: > 10 µM
CCRF-CEM leukemia
  TGI: > 10 µM
ACHN renal
  TGI: > 10 µM
KM12 colon
  TGI: > 10 µM
K-562 leukemia
  TGI: > 10 µM
MDA-MB-435
  TGI: > 10 µM
BT-549 breast
  TGI: > 10 µM
NCI-H460 lung
  TGI: > 10 µM
HCT-15 colon
  TGI: > 10 µM
OVCAR-8 ovarian
  TGI: > 10 µM
SNB-19 CNS
  TGI: > 10 µM
UACC-257 melanoma
  TGI: > 10 µM
EKVX NSCLC
  TGI: > 10 µM
UO-31 renal
  TGI: > 10 µM
SNB-75 CNS
  TGI: > 10 µM

## COC(=O)/C=C\[C@@H]1[C@H](C)N1S(=O)(=O)c1ccc(C)cc1 (stereo not given in full)
NCI-H522 lung
  TGI: > 100 µM
HCC-2998 colon
  TGI: > 100 µM
MDA-N
  TGI: > 100 µM
OVCAR-4 ovarian
  TGI: > 100 µM
NCI-H23 lung
  TGI: > 100 µM
PC-3 prostate
  TGI: > 100 µM
CCRF-CEM leukemia
  TGI: > 100 µM
ACHN renal
  TGI: > 100 µM
K-562 leukemia
  TGI: > 100 µM
MDA-MB-435
  TGI: > 100 µM
BT-549 breast
  TGI: > 100 µM
NCI-H460 lung
  TGI: > 100 µM
HCT-15 colon
  TGI: > 100 µM
OVCAR-8 ovarian
  TGI: > 100 µM
SNB-19 CNS
  TGI: > 100 µM
UACC-257 melanoma
  TGI: > 100 µM

## C[n+]1c2ccccc2c(C(=O)NC(CCCN=C(N)N)C(=O)O)c2ccccc21 (stereo not given)
HCC-2998 colon
  TGI: > 100 µM
MDA-N
  TGI: > 100 µM
OVCAR-4 ovarian
  TGI: > 100 µM
NCI-H23 lung
  TGI: > 100 µM
PC-3 prostate
  TGI: > 100 µM
ACHN renal
  TGI: > 100 µM
KM12 colon
  TGI: > 100 µM
K-562 leukemia
  TGI: > 100 µM
MDA-MB-435
  TGI: > 100 µM
BT-549 breast
  TGI: > 100 µM
NCI-H460 lung
  TGI: > 100 µM
HCT-15 colon
  TGI: > 100 µM
OVCAR-8 ovarian
  TGI: > 100 µM
SNB-19 CNS
  TGI: > 100 µM
UACC-257 melanoma
  TGI: > 100 µM
EKVX NSCLC
  TGI: > 100 µM
UO-31 renal
  TGI: > 100 µM
SNB-75 CNS
  TGI: > 100 µM

## c1ccc(CN2CCCN3CCN(CCCN(Cc4ccccc4)CC3)CC2)cc1
NCI-H522 lung
  TGI: > 100 µM
MDA-N
  TGI: > 100 µM
OVCAR-4 ovarian
  TGI: > 100 µM
NCI-H23 lung
  TGI: > 100 µM
PC-3 prostate
  TGI: > 100 µM
CCRF-CEM leukemia
  TGI: > 100 µM
ACHN renal
  TGI: > 100 µM
KM12 colon
  TGI: > 100 µM
K-562 leukemia
  TGI: > 100 µM
MDA-MB-435
  TGI: > 100 µM
BT-549 breast
  TGI: > 100 µM
NCI-H460 lung
  TGI: > 100 µM
HCT-15 colon
  TGI: > 100 µM
OVCAR-8 ovarian
  TGI: > 100 µM
SNB-19 CNS
  TGI: > 100 µM
UACC-257 melanoma
  TGI: 68.5 µM
EKVX NSCLC
  TGI: > 100 µM
UO-31 renal
  TGI: > 100 µM
SNB-75 CNS
  TGI: > 100 µM

## NC(N)=NCc1ccc2c(c1)OCO2
NCI-H522 lung
  TGI: > 100 µM
HCC-2998 colon
  TGI: > 100 µM
MDA-N
  TGI: > 100 µM
OVCAR-4 ovarian
  TGI: > 100 µM
NCI-H23 lung
  TGI: > 100 µM
PC-3 prostate
  TGI: > 100 µM
CCRF-CEM leukemia
  TGI: > 100 µM
ACHN renal
  TGI: > 100 µM
KM12 colon
  TGI: > 100 µM
K-562 leukemia
  TGI: > 100 µM
MDA-MB-435
  TGI: > 100 µM
NCI-H460 lung
  TGI: > 100 µM
HCT-15 colon
  TGI: > 100 µM
SNB-19 CNS
  TGI: > 100 µM
EKVX NSCLC
  TGI: > 100 µM
UO-31 renal
  TGI: > 100 µM
SNB-75 CNS
  TGI: > 100 µM

## COC(=O)/C(=N\N)C(C(=O)C(=O)Nc1cccc([N+](=O)[O-])c1)c1nc2ccc(C(=O)c3ccccc3)cc2[nH]c1=O (stereo not given)
NCI-H522 lung
  TGI: > 100 µM
HCC-2998 colon
  TGI: > 100 µM
MDA-N
  TGI: > 100 µM
OVCAR-4 ovarian
  TGI: > 100 µM
NCI-H23 lung
  TGI: > 100 µM
PC-3 prostate
  TGI: > 100 µM
CCRF-CEM leukemia
  TGI: 79.4 µM
ACHN renal
  TGI: > 100 µM
KM12 colon
  TGI: > 100 µM
MDA-MB-435
  TGI: > 100 µM
BT-549 breast
  TGI: > 100 µM
NCI-H460 lung
  TGI: > 100 µM
HCT-15 colon
  TGI: > 100 µM
OVCAR-8 ovarian
  TGI: > 100 µM
SNB-19 CNS
  TGI: > 100 µM
UACC-257 melanoma
  TGI: > 100 µM
EKVX NSCLC
  TGI: > 100 µM
UO-31 renal
  TGI: > 100 µM
SNB-75 CNS
  TGI: > 100 µM

## CC(C)(C)OC(=O)NNC(=O)C1Cc2ccccc2OC1=O (stereo not given)
NCI-H522 lung
  TGI: > 100 µM
HCC-2998 colon
  TGI: > 100 µM
MDA-N
  TGI: > 100 µM
NCI-H23 lung
  TGI: > 100 µM
PC-3 prostate
  TGI: > 100 µM
ACHN renal
  TGI: > 100 µM
KM12 colon
  TGI: > 100 µM
K-562 leukemia
  TGI: > 100 µM
MDA-MB-435
  TGI: > 100 µM
BT-549 breast
  TGI: > 100 µM
NCI-H460 lung
  TGI: > 100 µM
HCT-15 colon
  TGI: > 100 µM
OVCAR-8 ovarian
  TGI: > 100 µM
SNB-19 CNS
  TGI: > 100 µM
UACC-257 melanoma
  TGI: > 100 µM
EKVX NSCLC
  TGI: > 100 µM
UO-31 renal
  TGI: > 100 µM

## O=C1CCc2nc3ncccc3cc2C1
NCI-H522 lung
  TGI: 55.4 µM
HCC-2998 colon
  TGI: > 100 µM
MDA-N
  TGI: > 100 µM
OVCAR-4 ovarian
  TGI: > 100 µM
NCI-H23 lung
  TGI: > 100 µM
PC-3 prostate
  TGI: > 100 µM
CCRF-CEM leukemia
  TGI: 72.8 µM
ACHN renal
  TGI: > 100 µM
K-562 leukemia
  TGI: 97.7 µM
MDA-MB-435
  TGI: 82.3 µM
BT-549 breast
  TGI: > 100 µM
NCI-H460 lung
  TGI: > 100 µM
HCT-15 colon
  TGI: > 100 µM
SNB-19 CNS
  TGI: > 100 µM
UACC-257 melanoma
  TGI: > 100 µM
EKVX NSCLC
  TGI: > 100 µM
UO-31 renal
  TGI: > 100 µM
SNB-75 CNS
  TGI: > 100 µM

## N#Cc1nc(Sc2cnsn2)c(Sc2cnsn2)nc1C#N
NCI-H522 lung
  TGI: 8.53 µM
HCC-2998 colon
  TGI: 33.5 µM
MDA-N
  TGI: 49.6 µM
OVCAR-4 ovarian
  TGI: 61.1 µM
NCI-H23 lung
  TGI: 46.2 µM
PC-3 prostate
  TGI: 51 µM
ACHN renal
  TGI: 16 µM
KM12 colon
  TGI: 40.4 µM
K-562 leukemia
  TGI: > 81.8 µM
MDA-MB-435
  TGI: 33.8 µM
BT-549 breast
  TGI: 39.2 µM
NCI-H460 lung
  TGI: > 60.9 µM
HCT-15 colon
  TGI: 13.1 µM
OVCAR-8 ovarian
  TGI: > 75.5 µM
SNB-19 CNS
  TGI: > 78.1 µM
UACC-257 melanoma
  TGI: 39 µM
EKVX NSCLC
  TGI: 36.7 µM
UO-31 renal
  TGI: 65.6 µM
SNB-75 CNS
  TGI: 48.8 µM

## CS(=O)(=O)N1CC(CCl)c2ccc(NCCN)cc21 (stereo not given)
NCI-H522 lung
  TGI: > 100 µM
HCC-2998 colon
  TGI: > 100 µM
MDA-N
  TGI: > 100 µM
OVCAR-4 ovarian
  TGI: > 100 µM
NCI-H23 lung
  TGI: > 100 µM
PC-3 prostate
  TGI: > 100 µM
CCRF-CEM leukemia
  TGI: > 100 µM
ACHN renal
  TGI: > 100 µM
KM12 colon
  TGI: > 100 µM
K-562 leukemia
  TGI: > 100 µM
MDA-MB-435
  TGI: > 100 µM
NCI-H460 lung
  TGI: > 100 µM
HCT-15 colon
  TGI: > 100 µM
OVCAR-8 ovarian
  TGI: > 100 µM
SNB-19 CNS
  TGI: > 100 µM
UACC-257 melanoma
  TGI: > 100 µM
EKVX NSCLC
  TGI: > 100 µM
UO-31 renal
  TGI: > 100 µM
SNB-75 CNS
  TGI: 40.1 µM
